Measured values taken from patent US10986838B2, “Herbicides” (SYNGENTA PARTICIPATIONS AG, priority 2016, dated 2021).

How the values were obtained:
Type in all cases: in vivo
[1] = tested on: Echinochloa crus-galli (ECHCG); test: Pre-emergence herbicidal activity (B1); settings: Test 1b, 1000 g/ha, evaluated after 13 days, 5=total damage to plant, 0=no damage to plant
Method: (§1) B1 Pre-Emergence Herbicidal Activity Seeds of a variety of test species were sown in standard soil in pots: Triticum aestivium (TRZAW), Avena fatua (AVEFA), Alopecurus myosuroides (ALOMY), Echinochloa crus-galli (ECHCG), Lolium perenne (LOLPE), Zea Mays (ZEAMX), Abutilon theophrasti (ABUTH), Amaranthus retroflexus (AMARE) and Setaria faberi (SETFA). After cultivation for one day (pre-emergence) under controlled conditions in a glasshouse (at 24/16° C., day/night; 14 hours light; 65% humidity), the plants were sprayed with an aqueous spray solution derived from the formulation of the technical active ingredient in acetone/water (50:50) solution containing 0.5% Tween 20 (polyoxyethelyene sorbitan monolaurate, CAS RN 9005-64-5). The test plants were then grown in a glasshouse under controlled conditions (at 24/16° C., day/night; 14 hours light; 65% humidity) and watered twice daily. After 13 days, the test was evaluated (5=total damage to plant; 0=no damage to plant). Tables B1a and B1b Control of Weed Species by Compound of Formula (I) after Pre-Emergence Application

[2] = tested on: Setaria faberi (SETFA); test: Pre-emergence herbicidal activity (B1); settings: Test 1b, 1000 g/ha, evaluated after 13 days, 5=total damage to plant, 0=no damage to plant
Method: as §1

[3] = tested on: Abutilon theophrasti (ABUTH); test: Pre-emergence herbicidal activity (B1); settings: Test 1b, 1000 g/ha, evaluated after 13 days, 5=total damage to plant, 0=no damage to plant
Method: as §1

[4] = tested on: Amaranthus retroflexus (AMARE); test: Pre-emergence herbicidal activity (B1); settings: Test 1b, 1000 g/ha, evaluated after 13 days, 5=total damage to plant, 0=no damage to plant
Method: as §1

[5] = tested on: Lolium perenne (LOLPE); test: Pre-emergence herbicidal activity (B1); settings: Test 1b, 1000 g/ha, evaluated after 13 days, 5=total damage to plant, 0=no damage to plant
Method: as §1

[6] = tested on: Zea Mays (ZEAMX); test: Pre-emergence herbicidal activity (B1); settings: Test 1b, 1000 g/ha, evaluated after 13 days, 5=total damage to plant, 0=no damage to plant
Method: as §1

[7] = tested on: Echinochloa crus-galli (ECHCG); test: Post-emergence herbicidal activity (B2); settings: Test B2b, 1000 g/ha, evaluated after 13 days, 5=total damage to plant, 0=no damage to plant
Method: (§2) B2 Post-Emergence Herbicidal Activity Seeds of a variety of test species were sown in standard soil in pots: Triticum aestivium (TRZAW), Avena fatua (AVEFA), Alopecurus myosuroides (ALOMY), Echinochloa crus-galli (ECHCG), Lolium perenne (LOLPE), Zea Mays (ZEAMX), Abutilon theophrasti (ABUTH), Amaranthus retroflexus (AMARE) and Setaria faberi (SETFA). After 8 days cultivation (post-emergence) under controlled conditions in a glasshouse (at 24/16° C., day/night; 14 hours light; 65% humidity), the plants were sprayed with an aqueous spray solution derived from the formulation of the technical active ingredient in acetone/water (50:50) solution containing 0.5% Tween 20 (polyoxyethelyene sorbitan monolaurate, CAS RN 9005-64-5). The test plants were then grown in a glasshouse under controlled conditions (at 24/16° C., day/night; 14 hours light; 65% humidity) and watered twice daily. After 13 days, the test was evaluated (5=total damage to plant; 0=no damage to plant). Tables B2a and B2b Control of Weed Species by Compound of Formula (I) after Post-Emergence Application

[8] = tested on: Setaria faberi (SETFA); test: Post-emergence herbicidal activity (B2); settings: Test B2b, 1000 g/ha, evaluated after 13 days, 5=total damage to plant, 0=no damage to plant
Method: as §2

[9] = tested on: Abutilon theophrasti (ABUTH); test: Post-emergence herbicidal activity (B2); settings: Test B2b, 1000 g/ha, evaluated after 13 days, 5=total damage to plant, 0=no damage to plant
Method: as §2

[10] = tested on: Amaranthus retroflexus (AMARE); test: Post-emergence herbicidal activity (B2); settings: Test B2b, 1000 g/ha, evaluated after 13 days, 5=total damage to plant, 0=no damage to plant
Method: as §2

[11] = tested on: Lolium perenne (LOLPE); test: Post-emergence herbicidal activity (B2); settings: Test B2b, 1000 g/ha, evaluated after 13 days, 5=total damage to plant, 0=no damage to plant
Method: as §2

[12] = tested on: Zea Mays (ZEAMX); test: Post-emergence herbicidal activity (B2); settings: Test B2b, 1000 g/ha, evaluated after 13 days, 5=total damage to plant, 0=no damage to plant
Method: as §2

Row | SMILES | ECHCG damage score [1] | SETFA damage score [2] | ABUTH damage score [3] | AMARE damage score [4] | LOLPE damage score [5] | ZEAMX damage score [6] | ECHCG damage score [7] | SETFA damage score [8] | ABUTH damage score [9] | AMARE damage score [10] | LOLPE damage score [11] | ZEAMX damage score [12]
1 | COc1cncc(-c2ccc(N)c(C)n2)c1 [Compound A13] | 0 | 0 | 0 | 0 | 0 | 0 | 1 | 1 | 0 | 1 | 0 | 2
2 | CNc1ccc(-c2cccnc2)nc1C(F)(F)F [Compound A11] | 2 | 5 | 1 | 1 | 1 | 1 | 4 | 5 | 1 | 1 | 4 | 2
3 | Fc1cncc(-c2ccc(NCC3CC3)c(C(F)(F)F)n2)c1 [Compound A29] | 4 | 5 | 1 | 3 | 3 | 5 | 5 | 5 | 2 | 2 | 4 | 5
4 | Fc1ccc(CNc2ccc(-c3cncc(F)c3)nc2C(F)(F)F)cc1 [Compound A31] | 4 | 5 | 1 | 1 | 2 | 4 | 4 | 5 | 0 | 1 | 3 | 5
5 | CC(Nc1ccc(-c2cncc(F)c2)nc1C(F)(F)F)c1ccccc1 (stereo not drawn) [Compound A17] | 0 | 2 | 0 | 0 | 0 | 0 | 4 | 4 | 0 | 0 | 1 | 4
6 | CCNc1ccc(-c2cncc(F)c2)nc1C(F)(F)F [Compound A27] | 5 | 4 | 0 | 0 | 2 | 5 | 4 | 5 | 0 | 0 | 4 | 5
7 | Nc1ccc(-c2cncnc2)nc1C(F)(F)F [Compound A35, 6-pyrimidin-5-yl-2-(trifluoromethyl)pyridin-3-amine] | 3 | 4 | 0 | 1 | 2 | 5 | 4 | 5 | 1 | 2 | 4 | 5
8 | Cc1ccc(CNc2ccc(-c3cncc(F)c3)nc2C(F)(F)F)cc1 [Compound A20] | 2 | 5 | 0 | 0 | 0 | 3 | 3 | 5 | 0 | 0 | 2 | 5
9 | Cc1nc(-c2cccnc2)ccc1N [Compound A36] | 0 | 1 | 1 | 1 | 0 | 0 | 1 | 2 | 0 | 1 | 1 | 2
10 | Cc1nc(-c2cncc(F)c2)ccc1N [Compound A8] | 2 | 5 | 0 | 0 | 1 | 3 | 4 | 5 | 0 | 0 | 3 | 5
11 | CNc1ccc(-c2cncc(C(F)(F)F)c2)nc1C(F)(F)F [Compound A7] | 0 | 3 | 1 | 1 | 0 | 0 | 1 | 3 | 0 | 1 | 1 | 1
12 | Fc1cncc(-c2ccc(NCc3ccc(F)cc3F)c(C(F)(F)F)n2)c1 [Compound A28] | 2 | 4 | 0 | 0 | 0 | 2 | 3 | 5 | 0 | 1 | 2 | 5
13 | CNc1ccc(-c2cncc(F)c2)nc1C(F)(F)F [Compound A5] | 2 | 5 | 1 | 2 | 1 | 4 | 4 | 5 | 1 | 1 | 4 | 5
14 | Cc1nc(-c2cncc(C(F)(F)F)c2)ccc1N [Compound A12] | 0 | 0 | 0 | 0 | 0 | 0 | 1 | 1 | 0 | 0 | 0 | 1
15 | C=CCNc1ccc(-c2cncc(F)c2)nc1C(F)(F)F [Compound A25] | 4 | 4 | 0 | 1 | 2 | 5 | 4 | 5 | 0 | 2 | 3 | 5
16 | CNc1ccc(-c2cncc(C)c2)nc1C(F)(F)F [Compound A6] | 0 | 1 | 1 | 1 | 0 | 0 | 1 | 3 | 0 | 0 | 1 | 1
17 | COC(=O)CNc1ccc(-c2cncc(F)c2)nc1C(F)(F)F [Compound A22] | 4 | 4 | 0 | 3 | 2 | 5 | 5 | 5 | 2 | 3 | 4 | 5
